Laboratory results as given in publication PMC4691848 (Nature, 2012).

Experiments:
[1] = cytokine expression by PCR array in LPS-activated macrophages; format: cell-based, human; settings: 30 μM, LPS 2 h, n = 4 donors
[2] = test system: Flag-JMJD3-transfected HeLa cells; assay: nuclear H3K27me3 immunostaining; format: cell-based
[3] = test system: macrophages derived from patients with rheumatoid arthritis; assay: TNF-α production by macrophages derived from patients with rheumatoid arthritis; format: cell-based, human
[4] = intracellular compound quantification in macrophage lysates; format: in vitro ADME, human
[5] = TNF-α production by LPS-activated macrophages; format: cell-based, human
[6] = ChIP analysis at the TNFA locus in LPS-stimulated macrophages; format: cell-based, human
[7] = test system: 100 protein kinases; assay: kinase competition-binding assay; settings: 30 μM
[8] = test system: panel of 60 unrelated proteins, including histone deacetylases; assay: off-target panel
[9] = target: Flag-tagged UTX from transiently transfected HEK-293 cells (Homo sapiens, UniProt O15550); assay: chemoproteomics affinity capture with immobilized GSK-J3, western blotting; format: binding; settings: 100 μM free compound, HEK-293 lysate
Flag-tagged UTX from transiently transfected HEK-293 cells, sequence (O15550 whole entry): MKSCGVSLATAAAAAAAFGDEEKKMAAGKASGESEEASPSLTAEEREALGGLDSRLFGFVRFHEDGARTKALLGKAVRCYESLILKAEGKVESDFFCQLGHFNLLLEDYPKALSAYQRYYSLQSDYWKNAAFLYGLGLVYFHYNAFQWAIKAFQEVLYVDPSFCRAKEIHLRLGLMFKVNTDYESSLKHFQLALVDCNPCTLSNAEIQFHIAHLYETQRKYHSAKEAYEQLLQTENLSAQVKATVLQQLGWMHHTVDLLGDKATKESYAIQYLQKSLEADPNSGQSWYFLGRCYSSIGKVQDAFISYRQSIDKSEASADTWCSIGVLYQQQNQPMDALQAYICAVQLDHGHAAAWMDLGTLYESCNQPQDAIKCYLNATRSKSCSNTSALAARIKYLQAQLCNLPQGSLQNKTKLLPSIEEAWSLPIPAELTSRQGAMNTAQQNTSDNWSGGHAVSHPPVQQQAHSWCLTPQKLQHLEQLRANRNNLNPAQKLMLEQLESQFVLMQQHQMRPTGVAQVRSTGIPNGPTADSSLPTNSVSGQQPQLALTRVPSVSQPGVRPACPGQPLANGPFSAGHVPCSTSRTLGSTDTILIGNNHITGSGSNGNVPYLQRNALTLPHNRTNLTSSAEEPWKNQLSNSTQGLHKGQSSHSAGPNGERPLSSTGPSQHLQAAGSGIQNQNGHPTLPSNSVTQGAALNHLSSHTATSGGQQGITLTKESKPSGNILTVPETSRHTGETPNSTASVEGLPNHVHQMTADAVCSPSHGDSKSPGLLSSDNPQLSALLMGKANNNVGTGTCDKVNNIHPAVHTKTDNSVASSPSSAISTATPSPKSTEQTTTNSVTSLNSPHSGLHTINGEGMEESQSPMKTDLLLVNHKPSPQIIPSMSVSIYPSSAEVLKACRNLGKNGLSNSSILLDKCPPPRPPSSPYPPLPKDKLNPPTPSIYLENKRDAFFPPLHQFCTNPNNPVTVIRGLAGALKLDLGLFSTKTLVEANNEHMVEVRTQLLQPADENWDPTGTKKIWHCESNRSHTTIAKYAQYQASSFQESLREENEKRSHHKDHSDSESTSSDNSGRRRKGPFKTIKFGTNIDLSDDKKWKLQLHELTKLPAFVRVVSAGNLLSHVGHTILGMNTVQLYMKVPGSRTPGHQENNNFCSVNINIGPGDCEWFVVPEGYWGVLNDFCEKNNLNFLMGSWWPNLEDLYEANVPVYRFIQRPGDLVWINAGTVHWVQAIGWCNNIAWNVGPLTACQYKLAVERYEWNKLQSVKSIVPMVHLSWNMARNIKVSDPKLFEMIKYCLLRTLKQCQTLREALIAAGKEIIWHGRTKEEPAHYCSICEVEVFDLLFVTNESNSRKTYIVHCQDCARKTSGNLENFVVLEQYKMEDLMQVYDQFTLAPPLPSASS

[10] = test system: panel of demethylases of the JMJ family; assay: JMJ selectivity panel; settings: other than JMJD3 and UTX

What does the source list for `CCOC(=O)CCNc1cc(N2CCc3ccccc3CC2)nc(-c2ccccn2)n1` [GSK-J4]?
LPS-driven cytokines with significantly reduced expression (PCR array) [1]: 16 of 34; nuclear H3K27me3 staining in Flag-JMJD3-transfected HeLa cells ([2]; 25 μM): preserved nuclear H3K27me3 staining; total nuclear H3K27me3 levels in untransfected cells ([2]; untransfected cells): increased total nuclear H3K27me3 levels; production of TNF-α by macrophages from patients with rheumatoid arthritis [3]: blocked the production of TNF-α; hydrolysis by macrophage esterases [4]: rapidly hydrolysed; levels of LPS-induced JMJD3 or of LPS-independent UTX and EZH2 [5]: neither GSK-J4 nor GSK-J5 directly affected; TNF-α production after siRNA knockdown of either JMJD3 or UTX alone ([5]; 30 μM, LPS 1 h): still able to inhibit TNF-α production; cellular toxicity ([5]; conditions of the TNF-α assay): No interference from cellular toxicity was observed; IC50 ([5]; read-out: IC50 for TNF-α blockade, LPS, 6 h, n = 5 donors): 9 µM; H3K27 methylation upstream of the TNFA TSS [6]: Neither GSK-J4 nor GSK-J5 had an effect; LPS-induced loss of H3K27me3 associated with the TNFA TSS (ChIP) ([6]; 30 μM, LPS 1 h, n = 8 donors): prevented the LPS-induced loss of H3K27me3; recruitment of RNA polymerase II to the TNFA TSS (ChIP) ([6]; 30 μM, LPS 1 h, n = 8 donors): blocked the recruitment of RNA polymerase II

Which “inhibition of 100 protein kinases” value [7] does the source give for `O=C(O)CCNc1cc(N2CCc3ccccc3CC2)nc(-c2ccccn2)n1` [GSK-J1] here?
The value was “did not significantly inhibit”.

What about the “off-target activity against a panel of 60 unrelated proteins” value [8] of the same compound?
Its value is “negligible off-target activity”.

And the cellular permeability [4]?
Its cellular permeability is “restricts cellular permeability”.

What about the “competition of capture of Flag-tagged UTX by immobilized GSK-J3” value [9] of the same compound?
The value was “competitively inhibited”.

What about the “activity against a panel of demethylases of the JMJ family” value [10] of the same compound?
Its value is “inactive”.

With `CCOC(=O)CCNc1cc(N2CCc3ccccc3CC2)nc(-c2cccnc2)n1` [GSK-J5] as the compound, how does the “hydrolysis by macrophage esterases” value [4] read?
The value was “rapidly hydrolysed”.

And the “levels of LPS-induced JMJD3 or of LPS-independent UTX and EZH2” value [5]?
The value was “neither GSK-J4 nor GSK-J5 directly affected”.

And the “effect on TNF-α protein production” value ([5]; LPS, 6 h)?
Its value is “no effect”.

And the “H3K27 methylation upstream of the TNFA TSS” value [6]?
Its value is “Neither GSK-J4 nor GSK-J5 had an effect”.
